In patent publication US20260248773A1, “POTASSIUM CHANNEL BLOCKERS OR DERIVATIVES THEREOF FOR PREVENTING, ALLEVIATING, AND/OR TREATING TISSUE DYSFUNCTION CAUSED BY TOXIC INSULTS” (priority 2022, published 2026):

Experiments:
[1] = test system: CIPN; conditions: 0-10 point scale; cited from earlier work
[2] = test system: glial fibrillary acidic protein (GFAP); experiment: GFAP immunofluorescence in corpus callosum after PTX with or without 4-AP (Example 9); type: in vivo; conditions: E0771 tumor-bearing mice; PTX 35 mg/kg day one
Experimental: To determine whether 4-AP treatment can prevent PTX-induced increases in a reactive inflammatory response in the brain, as detected by increased expression of glial fibrillary acidic protein (GFAP), 16-week-old female C57BL/6 mice were inoculated with a triple negative murine breast cancer cell line E0771. When tumors were palpable, the mice were injected with either paclitaxel and water, 4-AP, both, or saline as a control. Paclitaxel (35 mg/kg) was injected on day one and 4-AP and water were injected daily. The mice were sacrificed on day nine and their brains were perfused and harvested. Brains were cryosectioned coronally.
The mouse brain sections were stained with anti-GFAP antibodies, followed by a fluorescent secondary, for analysis via immunofluorescence.

[3] = test system: chemotherapy-induced peripheral neuropathy (CIPN) caused by PTX; conditions: mouse, in vivo
Experimental: More specifically, initial studies were conducted on the specific case of CIPN as induced by exposure to PTX. […] 16 week old C73L/6 female mice were given a single dose of 35 mg/kg PTX (i.p.). Animals were separated into control (saline, i.p., n=4) or treatment group (2 mg/kg 4-AP daily, i.p., n=4). Pre-treatment Catwalk scores were compared to 21 days post-PTX injection.
To align with clinical treatments, mice were treated with a PTX dose of 35 mg/kg (equivalent to approximately 110 mg/m^2 and within the clinical treatment range) for four cycles, each three weeks apart.
The studies also included a 4-AP treatment arm (n=4) with a daily dose of 2 mg/kg 4-AP administered i.p. (as per most previous studies by MN and colleagues).
To evaluate detailed functional changes in gait, the CatWalk™ (Noldus Information Technology, Wageningen, The Netherlands) method was implemented.
Sciatic nerve samples were harvested and resin-embedded, sectioned and imaged using transmission electron microscopy. Images were analyzed to calculate markers of peripheral neuropathy, namely: axon counts, fiber size, myelination (g ratio), and circumferential irregularity (FIG. 2).

[4] = test system: kidney; experiment: Kidney histology (H&E) after PTX with or without 4-AP (Example 8); type: in vivo, mice; conditions: PTX treated, daily saline
Experimental: To examine effects on the kidney histological studies were conducted on this tissue. Mice received PTX on day 0 of the experiment, and half of those mice also were injected with 4-AP at this time, and every day thereafter, at a dosage of 2 mg/kg. Mice not receiving 4-AP were injected with saline to control for any stress induced by daily injections. Experimental groups also included mice receiving no PTX treatment, and treated only with daily injections of saline. Mice were sacrificed after 1 week. Mice were perfused with 4% paraformaldehyde and kidneys were sectioned and stained with haematoxylin & eosin (H&E).

Structure (SMILES) | average reduction in pain [1] | expression of GFAP after PTX, corpus callosum [2] | tolerability of PTX dose [3] | kidney histology after PTX, H&E staining [4]
CNCC[C@H](Oc1cccc2ccccc12)c1cccs1 [duloxetine] | 0.72 point | – | – | –
CC(=O)O[C@H]1C(=O)[C@@]2(C)[C@H]([C@H](OC(=O)c3ccccc3)[C@]3(O)C[C@H](OC(=O)[C@H](O)[C@@H](NC(=O)c4ccccc4)c4ccccc4)C(C)=C1C3(C)C)[C@]1(OC(C)=O)CO[C@@H]1C[C@@H]2O [PTX, paclitaxel] | – | increased expression of GFAP | tolerated the dose | Loss of brush borders (dark grey arrows), nuclear dropout (grey arrow), and blebbing of tubular epithelial cells
